# Target: T1, human TGR5 (h-TGR5) (Homo sapiens, UniProt Q8TDU6)
# T1 construct: expressed in transfected cells
# T1 sequence (Q8TDU6 1-330): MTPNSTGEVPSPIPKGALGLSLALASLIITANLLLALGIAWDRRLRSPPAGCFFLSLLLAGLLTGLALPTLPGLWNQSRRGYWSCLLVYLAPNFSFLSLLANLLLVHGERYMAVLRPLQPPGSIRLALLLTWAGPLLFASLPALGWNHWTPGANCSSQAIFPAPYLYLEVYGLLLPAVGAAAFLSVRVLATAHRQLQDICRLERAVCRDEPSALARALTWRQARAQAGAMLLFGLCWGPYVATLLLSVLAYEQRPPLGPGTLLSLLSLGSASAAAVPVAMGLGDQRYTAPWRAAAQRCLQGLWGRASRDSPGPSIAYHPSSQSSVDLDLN
# Assay: TGR5/CRE-Luciferiase Assay (HEK 293 hTGR5/CRE-Luc cells)
# Type: cell-based
# Settings: HEK 293 hTGR5/CRE-Luc cells, 6 hours incubation, luciferase activity; Table 2; read-out: h-TGR5CRE-Luc EC50 (CRE-Luc)
# Procedure, shortened: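 HEK293 cells stably carrying hTGR5 and a CRE-luciferase reporter were exposed to serially diluted compounds (diluted in DMEM with 5% DMSO) for 6 h. Cells were then lysed in luciferase buffer, luminescence was read, and EC50 values were derived from dose-response curves.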
row,EC50 [nM],SMILES
1,1000 to 10000,Fc1ccc(-n2c(Cc3ccc(Cl)c(Cl)c3)nnc2SCc2ccc(F)cc2C(F)(F)F)cc1 [Example 33]

# Same assay, conditions: h-TGR5 CRE-Luc EC50, Table 1; read-out: CRE-Luc (EC50)
row,EC50 [nM],SMILES
1,100 to 1000,"CC(C)(c1ccc(Cl)c(Cl)c1)c1cnc(SCC2CCCN(S(C)(=O)=O)C2)n1-c1ccc(F)cc1 (stereo not drawn) [3-[({5-[1-(3,4-dichlorophenyl)-1-methylethyl]-1-(4-fluorophenyl)-1H-imidazol-2-yl}thio)methyl]-1-(methylsulfonyl)piperidine]"
2,100 to 1000,"CN1CCN(c2ccc(CSc3ncc(C(C)(C)c4ccc(Cl)c(Cl)c4)n3-c3ccc(F)cc3)cc2F)CC1 [1-{4-[({5-[1-(3,4-dichlorophenyl)-1-methylethyl]-1-(4-fluorophenyl)-1H-imidazol-2-yl}thio)methyl]-2-fluorophenyl}-4-methylpiperazine]"
3,100 to 1000,"CC(C)(O)COc1cc(F)ccc1CSc1ncc(C(C)(C)c2ccc(Cl)c(Cl)c2)n1-c1ccc(F)cc1 [1-({2-[({5-[1-(3,4-dichlorophenyl)-1-methylethyl]-1-(4-fluorophenyl)-1H-imidazol-2-yl}thio)methyl]-5-fluorophenyl}oxy)-2-methylpropan-2-ol]"
4,100 to 1000,"CC(C)(O)c1ccc(CSc2ncc(C(C)(C)c3ccc(Cl)c(Cl)c3)n2-c2ccc(F)cc2)c(F)c1 [2-{4-[({5-[1-(3,4-dichlorophenyl)-1-methylethyl]-1-(4-fluorophenyl)-1H-imidazol-2-yl}thio)methyl]-3-fluorophenyl}propan-2-ol]"
5,100 to 1000,"CC(C)(O)CNC(=O)c1cc(CSc2ncc(C(C)(C)c3ccc(Cl)c(Cl)c3)n2-c2ccc(F)cc2)ccc1F [5-[({5-[1-(3,4-dichlorophenyl)-1-methylethyl]-1-(4-fluorophenyl)-1H-imidazol-2-yl}thio)methyl]-2-fluoro-N-(2-hydroxy-2-methylpropyl)benzamide]"
6,1000 to 10000,"CC(C)(c1ccc(Cl)c(Cl)c1)c1c(-c2ccccc2)nc(SCc2c(F)cccc2Cl)n1-c1ccc(F)cc1 [2-{[(2-chloro-6-fluorophenyl)methyl]thio}-5-[1-(3,4-dichlorophenyl)-1-methylethyl]-1-(4-fluorophenyl)-4-phenyl-1H-imidazole]"
7,100 to 1000,"CC(C)(c1ccc(Cl)c(Cl)c1)c1cnc(SCc2ccc(C(N)=O)c(Cl)c2)n1-c1ccc(F)cc1 [2-chloro-4-[({5-[1-(3,4-dichlorophenyl)-1-methylethyl]-1-(4-fluorophenyl)-1H-imidazol-2-yl}thio)methyl]benzamide]"
8,100 to 1000,"Fc1ccc(-n2c(Cc3ccc(F)c(F)c3)cnc2SCc2ccc(F)cc2Cl)cc1 [2-{[(2-chloro-4-fluorophenyl)methyl]thio}-5-[(3,4-difluorophenyl)methyl]-1-(4-fluorophenyl)-1H-imidazole]"
9,1000 to 10000,"CC(C)(c1ccc(F)c(F)c1)c1cnc(S(=O)(=O)Cc2ccc(F)cc2Cl)n1-c1ccc(F)cc1 [2-{[(2-chloro-4-fluorophenyl)methyl]sulfonyl}-5-[1-(3,4-difluorophenyl)-1-methylethyl]-1-(4-fluorophenyl)-1H-imidazole]"
10,1000 to 10000,"CC(C)(c1ccc(Cl)c(Cl)c1)c1cnc(S(=O)(=O)Nc2ccc(F)cc2Cl)n1-c1ccc(F)cc1 [N-(2-chloro-4-fluorophenyl)-5-[1-(3,4-dichlorophenyl)-1-methylethyl]-1-(4-fluorophenyl)-1H-imidazole-2-sulfonamide]"
11,1000 to 10000,CC(C)(c1ccc(OC(F)(F)F)c(Cl)c1)c1cnc(SCc2ccc(F)cc2Cl)n1-c1ccc(F)cc1 [2-{[(2-chloro-4-fluorophenyl)methyl]thio}-5-(1-{3-chloro-4-[(trifluoromethyl)oxy]phenyl}-1-methylethyl)-1-(4-fluorophenyl)-1H-imidazole]
12,1000 to 10000,"CN(C)CCn1c(C(C)(C)c2ccc(Cl)c(Cl)c2)cnc1SCc1c(F)cccc1Cl [2-(2-{[(2-chloro-6-fluorophenyl)methyl]thio}-5-[1-(3,4-dichlorophenyl)-1-methylethyl]-1H-imidazol-1-yl)-N,N-dimethylethanamine]"
13,1000 to 10000,"CC(C)(c1ccc(Cl)c(Cl)c1)c1cnc(S(=O)(=O)Cc2ccc(Cl)cc2Cl)n1-c1ccc(F)cc1 [5-[1-(3,4-dichlorophenyl)-1-methylethyl]-2-{[(2,4-dichlorophenyl)methyl]sulfonyl}-1-(4-fluorophenyl)-1H-imidazole]"
14,100 to 1000,"COc1ccc(C(C)(C)c2cnc(C(=O)NCc3ccc(Cl)c(F)c3)n2-c2ccc(F)cc2)cc1OC [5-{1-[3,4-bis(methyloxy)phenyl]-1-methylethyl}-N-[(4-chloro-3-fluorophenyl)methyl]-1-(4-fluorophenyl)-1H-imidazole-2-carboxamide]"
15,1000 to 10000,"CC(C)(C)OC(=O)N1CCC(OCc2ncc(C(C)(C)c3ccc(Cl)c(Cl)c3)n2-c2ccc(F)cc2)CC1 [1,1-dimethylethyl 4-[({5-[1-(3,4-dichlorophenyl)-1-methylethyl]-1-(4-fluorophenyl)-1H-imidazol-2-yl}methyl)oxy]piperidine-1-carboxylate]"
16,100 to 1000,"CC(C)(c1ccc(Cl)c(Cl)c1)c1cnc(SCc2ccc(F)cc2Cl)n1-c1ccc(F)c(C#N)c1 [5-(2-{[(2-chloro-4-fluorophenyl)methyl]thio}-5-[1-(3,4-dichlorophenyl)-1-methylethyl]-1H-imidazol-1-yl)-2-fluorobenzonitrile]"
17,100 to 1000,CC(C)(c1ccc(NS(C)(=O)=O)cc1)c1cnc(SCc2c(F)cccc2Cl)n1-c1ccc(F)cc1 [N-(4-{1-[2-{[(2-chloro-6-fluorophenyl)methyl]thio}-1-(4-fluorophenyl)-1H-imidazol-5-yl]-1-methylethyl}phenyl)methanesulfonamide]
18,1000 to 10000,"CC(C)(c1ccc(Cl)c(S(N)(=O)=O)c1)c1cnc(SCc2c(F)cc(C(=O)O)cc2F)n1-c1ccc(F)cc1 [4-({[5-{1-[3-(aminosulfonyl)-4-chlorophenyl]-1-methylethyl}-1-(4-fluorophenyl)-1H-imidazol-2-yl]thio}methyl)-3,5-difluorobenzoic acid]"
19,1000 to 10000,"COc1ccc(-c2cnc(SCc3c(F)cccc3Cl)n2-c2ccc(F)cc2)cc1OC [5-[3,4-bis(methyloxy)phenyl]-2-{[(2-chloro-6-fluorophenyl)methyl]thio}-1-(4-fluorophenyl)-1H-imidazole]"
20,1000 to 10000,"CN1CCN(c2ccc(CSc3ncc(C(C)(C)c4ccc(Cl)c(Cl)c4)n3-c3ccc(F)cc3)cc2Cl)CC1 [1-{2-chloro-4-[({5-[1-(3,4-dichlorophenyl)-1-methylethyl]-1-(4-fluorophenyl)-1H-imidazol-2-yl}thio)methyl]phenyl}-4-methylpiperazine]"
21,< 100,CC(C)(c1ccc(Cl)c(O)c1)c1cnc(SCc2c(F)cccc2Cl)n1-c1ccc(F)cc1 [2-chloro-5-{1-[2-{[(2-chloro-6-fluorophenyl)methyl]thio}-1-(4-fluorophenyl)-1H-imidazol-5-yl]-1-methylethyl}phenol]
22,100 to 1000,CC(C)(Oc1ccc(C(C)(C)c2cnc(SCc3ccc(F)cc3Cl)n2-c2ccc(F)cc2)cc1Cl)C(=O)O [2-[(2-chloro-4-{1-[2-{[(2-chloro-4-fluorophenyl)methyl]thio}-1-(4-fluorophenyl)-1H-imidazol-5-yl]-1-methylethyl}phenyl)oxy]-2-methylpropanoic acid]
23,< 100,"COc1ccc(C(C)(C)c2cnc(S(=O)(=O)Cc3c(F)cccc3Cl)n2-c2ccc(F)cc2)cc1OC [5-{1-[3,4-bis(methyloxy)phenyl]-1-methylethyl}-2-{[(2-chloro-6-fluorophenyl)methyl]sulfonyl}-1-(4-fluorophenyl)-1H-imidazole]"
24,1000 to 10000,"CC(C)(c1ccc(Cl)c(Cl)c1)c1cnc(C(O)CCc2ccc(Cl)cc2Cl)n1-c1ccc(F)cc1 (stereo not drawn) [3-(2,4-dichlorophenyl)-1-{5-[1-(3,4-dichlorophenyl)-1-methylethyl]-1-(4-fluorophenyl)-1H-imidazol-2-yl}propan-1-ol]"
25,1000 to 10000,"CC(C)(Oc1cc(F)ccc1CSc1ncc(C(C)(C)c2ccc(Cl)c(Cl)c2)n1-c1ccc(F)cc1)C(=O)O [2-({2-[({5-[1-(3,4-dichlorophenyl)-1-methylethyl]-1-(4-fluorophenyl)-1H-imidazol-2-yl}thio)methyl]-5-fluorophenyl}oxy)-2-methylpropanoic acid]"
26,1000 to 10000,"CC(C)(c1ccc(Cl)c(Cl)c1)c1cnc(COc2ccc(C(=O)O)cc2Cl)n1-c1ccc(F)cc1 [3-chloro-4-[({5-[1-(3,4-dichlorophenyl)-1-methylethyl]-1-(4-fluorophenyl)-1H-imidazol-2-yl}methyl)oxy]benzoic acid]"
27,100 to 1000,"CC(C)(c1ccc(Cl)c(Cl)c1)c1cnc(SCc2c(F)cccc2CO)n1-c1ccc(F)cc1 [{2-[({5-[1-(3,4-dichlorophenyl)-1-methylethyl]-1-(4-fluorophenyl)-1H-imidazol-2-yl}thio)methyl]-3-fluorophenyl}methanol]"
28,100 to 1000,CC(C)(c1ccc(F)cc1)c1cnc(SCc2c(F)cccc2Cl)n1-c1ccc(F)cc1 [2-{[(2-chloro-6-fluorophenyl)methyl]thio}-1-(4-fluorophenyl)-5-[1-(4-fluorophenyl)-1-methylethyl]-1H-imidazole]
29,100 to 1000,"CC(C)(c1ccc(Cl)c(Cl)c1)c1cnc(S(=O)(=O)Cc2c(Cl)cccc2Cl)n1-c1ccc(F)cc1 [5-[1-(3,4-dichlorophenyl)-1-methylethyl]-2-{[(2,6-dichlorophenyl)methyl]sulfonyl}-1-(4-fluorophenyl)-1H-imidazole]"

# — patent publication US8785488B2 (Exelixis Patent Company LLC, priority 2009, dated 2014)
